Measured values reported in PubChem BioAssay (NCI).
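Assay format: 96-well plates, 48-hour exposure. TGI marks complete inhibition of growth.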

What was measured:
Assay in all cases: DTP human tumour cell line panel, 48 h
ACHN renal = tested on: ACHN renal
U251 CNS = tested on: U251 CNS
M14 melanoma = tested on: M14 melanoma
OVCAR-3 ovarian = tested on: OVCAR-3 ovarian
UACC-62 melanoma = tested on: UACC-62 melanoma
M19-MEL melanoma = tested on: M19-MEL melanoma
HOP-92 NSCLC = tested on: HOP-92 NSCLC
HCT-15 colon = tested on: HCT-15 colon
HOP-62 NSCLC = tested on: HOP-62 NSCLC
COLO 205 colon = tested on: COLO 205 colon
SK-MEL-2 melanoma = tested on: SK-MEL-2 melanoma
DLD-1 colon = tested on: DLD-1 colon
CAKI-1 renal = tested on: CAKI-1 renal
NCI-H460 lung = tested on: NCI-H460 lung
SK-MEL-5 melanoma = tested on: SK-MEL-5 melanoma
TK-10 renal = tested on: TK-10 renal
SK-MEL-28 melanoma = tested on: SK-MEL-28 melanoma
SF-268 CNS = tested on: SF-268 CNS
NCI-H23 lung = tested on: NCI-H23 lung
SN12C renal = tested on: SN12C renal
UACC-257 melanoma = tested on: UACC-257 melanoma
SK-OV-3 ovarian = tested on: SK-OV-3 ovarian
LXFL 529 NSCLC = tested on: LXFL 529 NSCLC
SNB-19 CNS = tested on: SNB-19 CNS
NCI-H522 lung = tested on: NCI-H522 lung
KM20L2 colon = tested on: KM20L2 colon
HT29 colon = tested on: HT29 colon
A549 NSCLC = tested on: A549 NSCLC
OVCAR-4 ovarian = tested on: OVCAR-4 ovarian
UO-31 renal = tested on: UO-31 renal
IGROV1 ovarian = tested on: IGROV1 ovarian
DMS 273 small cell lung = tested on: DMS 273 small cell lung
OVCAR-8 ovarian = tested on: OVCAR-8 ovarian
EKVX NSCLC = tested on: EKVX NSCLC
SW-620 colon = tested on: SW-620 colon
HCC-2998 colon = tested on: HCC-2998 colon
786-0 renal = tested on: 786-0 renal
LOX IMVI melanoma = tested on: LOX IMVI melanoma
SF-295 CNS = tested on: SF-295 CNS
KM12 colon = tested on: KM12 colon
MALME-3M melanoma = tested on: MALME-3M melanoma
SNB-75 CNS = tested on: SNB-75 CNS
HCT-116 colon = tested on: HCT-116 colon
K-562 leukemia = tested on: K-562 leukemia
SR leukemia = tested on: SR leukemia
HOP-18 NSCLC = tested on: HOP-18 NSCLC
HL-60(TB) leukemia = tested on: HL-60(TB) leukemia
DMS 114 small cell lung = tested on: DMS 114 small cell lung
NCI-H226 lung = tested on: NCI-H226 lung
SNB-78 CNS = tested on: SNB-78 CNS
RPMI-8226 leukemia = tested on: RPMI-8226 leukemia
CCRF-CEM leukemia = tested on: CCRF-CEM leukemia
SF-539 CNS = tested on: SF-539 CNS
MOLT-4 leukemia = tested on: MOLT-4 leukemia
OVCAR-5 ovarian = tested on: OVCAR-5 ovarian
RXF 393 renal = tested on: RXF 393 renal
A498 renal = tested on: A498 renal

## Cc1ccc(C(N)=O)cc1N=NN(C)C
ACHN renal
  TGI: > 100 µM
U251 CNS
  TGI: > 100 µM
M14 melanoma
  TGI: > 100 µM
OVCAR-3 ovarian
  TGI: > 100 µM
UACC-62 melanoma
  TGI: > 100 µM
M19-MEL melanoma
  TGI: > 100 µM
HOP-92 NSCLC
  TGI: > 100 µM
HCT-15 colon
  TGI: > 100 µM
HOP-62 NSCLC
  TGI: > 100 µM
COLO 205 colon
  TGI: > 100 µM
SK-MEL-2 melanoma
  TGI: > 100 µM
DLD-1 colon
  TGI: > 100 µM
CAKI-1 renal
  TGI: > 100 µM
NCI-H460 lung
  TGI: > 100 µM
SK-MEL-5 melanoma
  TGI: > 100 µM
TK-10 renal
  TGI: > 100 µM
SK-MEL-28 melanoma
  TGI: > 100 µM
SF-268 CNS
  TGI: > 100 µM
NCI-H23 lung
  TGI: > 100 µM
SN12C renal
  TGI: > 100 µM
UACC-257 melanoma
  TGI: > 100 µM
SK-OV-3 ovarian
  TGI: > 100 µM
LXFL 529 NSCLC
  TGI: > 100 µM
SNB-19 CNS
  TGI: > 100 µM
NCI-H522 lung
  TGI: > 100 µM
KM20L2 colon
  TGI: > 100 µM
HT29 colon
  TGI: > 100 µM
A549 NSCLC
  TGI: > 100 µM
OVCAR-4 ovarian
  TGI: > 100 µM
UO-31 renal
  TGI: > 100 µM
IGROV1 ovarian
  TGI: > 100 µM
DMS 273 small cell lung
  TGI: > 100 µM
OVCAR-8 ovarian
  TGI: > 100 µM
EKVX NSCLC
  TGI: > 100 µM
SW-620 colon
  TGI: > 100 µM
HCC-2998 colon
  TGI: > 100 µM
786-0 renal
  TGI: > 100 µM
LOX IMVI melanoma
  TGI: > 100 µM
SF-295 CNS
  TGI: > 100 µM
KM12 colon
  TGI: > 100 µM

## C=C1CC2OC(=O)C(=C)C2C(O)C2C(=C)CCC12 (stereo not given)
MALME-3M melanoma
  TGI: 45.1 µM
ACHN renal
  TGI: 21.2 µM
U251 CNS
  TGI: 30.8 µM
SNB-75 CNS
  TGI: 21.5 µM
HCT-116 colon
  TGI: 14.5 µM
OVCAR-3 ovarian
  TGI: 22.3 µM
UACC-62 melanoma
  TGI: 12.8 µM
M19-MEL melanoma
  TGI: 20.1 µM
K-562 leukemia
  TGI: 30.5 µM
HOP-92 NSCLC
  TGI: 5.84 µM
SR leukemia
  TGI: 14 µM
HOP-18 NSCLC
  TGI: 29.3 µM
HL-60(TB) leukemia
  TGI: 6.32 µM
COLO 205 colon
  TGI: 12.9 µM
SK-MEL-2 melanoma
  TGI: 40.8 µM
DLD-1 colon
  TGI: 30.9 µM
CAKI-1 renal
  TGI: 19.7 µM
NCI-H460 lung
  TGI: 27.8 µM
SK-MEL-5 melanoma
  TGI: 25.3 µM
TK-10 renal
  TGI: 28 µM
SK-MEL-28 melanoma
  TGI: 21 µM
SF-268 CNS
  TGI: 32.3 µM
NCI-H23 lung
  TGI: 27 µM
SN12C renal
  TGI: 18.1 µM
UACC-257 melanoma
  TGI: 18.8 µM
DMS 114 small cell lung
  TGI: 16.9 µM
NCI-H226 lung
  TGI: 35.5 µM
SK-OV-3 ovarian
  TGI: 24.9 µM
LXFL 529 NSCLC
  TGI: 16.7 µM
SNB-19 CNS
  TGI: 30.8 µM
HT29 colon
  TGI: 15.1 µM
SNB-78 CNS
  TGI: 20.6 µM
A549 NSCLC
  TGI: 32.2 µM
RPMI-8226 leukemia
  TGI: 14.3 µM
UO-31 renal
  TGI: 29.7 µM
IGROV1 ovarian
  TGI: 35.5 µM
DMS 273 small cell lung
  TGI: 22.2 µM
CCRF-CEM leukemia
  TGI: 10.2 µM
OVCAR-8 ovarian
  TGI: 18 µM
SF-539 CNS
  TGI: 11.5 µM
EKVX NSCLC
  TGI: 19.7 µM
MOLT-4 leukemia
  TGI: 11 µM
OVCAR-5 ovarian
  TGI: 24.7 µM
SW-620 colon
  TGI: 13.8 µM
RXF 393 renal
  TGI: 17.7 µM
HCC-2998 colon
  TGI: 22.2 µM
786-0 renal
  TGI: 26.7 µM
SF-295 CNS
  TGI: 22.8 µM
KM12 colon
  TGI: 22.6 µM
A498 renal
  TGI: 17.5 µM
